Laboratory results from the NIST ThermoML archive (doi:10.1021/je0340250).

How the values were obtained:
[1] = xn = mol fraction of the nth substance listed

CN1CCOCC1 [N-methylmorpholine]
Conditions | surface tension liquid-gas [mN/m]
298.15 K | 28.22
308.15 K | 27.2
318.15 K | 26.18
328.15 K | 25.15

CN1CCOCC1 [N-methylmorpholine] + O
surface tension liquid-gas [mN/m], [1]
Conditions | 298.15 K | 308.15 K | 318.15 K | 328.15 K
x1 = 0.0082 | 69.64 | 67.64 | 65.75 | 63.98
x1 = 0.0256 | 54.94 | 53.18 | 51.42 | 49.66
x1 = 0.0481 | 50.58 | 48.64 | 46.7 | 44.76
x1 = 0.0539 | 49.42 | 47.71 | 46 | 44.3
x1 = 0.0747 | 46.86 | 45.35 | 43.83 | 42.32
x1 = 0.0992 | 44.62 | 43.24 | 41.87 | 40.49
x1 = 0.1962 | 38.66 | 37.36 | 36.05 | 34.75
x1 = 0.2972 | 34.9 | 33.66 | 32.43 | 31.19
x1 = 0.395 | 32.72 | 31.54 | 30.35 | 29.16
x1 = 0.4993 | 31.33 | 30.17 | 29.02 | 27.86
x1 = 0.5952 | 30.56 | 29.47 | 28.37 | 27.28
x1 = 0.6979 | 29.81 | 28.73 | 27.65 | 26.57
x1 = 0.8028 | 29.24 | 28.14 | 27.03 | 25.93
x1 = 0.8925 | 28.81 | 27.69 | 26.57 | 25.45
x1 = 1 | 28.22 | 27.2 | 26.18 | 25.15

C1COCCN1 [tetrahydro-1,4-oxazine]
Conditions | surface tension liquid-gas [mN/m]
298.15 K | 37.68
308.15 K | 36.46
318.15 K | 35.24
328.15 K | 34.02

C1COCCN1 [tetrahydro-1,4-oxazine] + O
surface tension liquid-gas [mN/m], [1]
Conditions | 298.15 K | 308.15 K | 318.15 K | 328.15 K
x1 = 0.0125 | 68.36 | 66.65 | 64.55 | 62.68
x1 = 0.0155 | 67.66 | 65.85 | 66.74 | 61.8
x1 = 0.0251 | 65.41 | 63.27 | 61.14 | 59
x1 = 0.0496 | 62.08 | 60.05 | 58.03 | 56
x1 = 0.06 | 60.89 | 58.94 | 56.98 | 55.03
x1 = 0.0735 | 59.6 | 57.66 | 55.72 | 53.78
x1 = 0.0793 | 59.43 | 57.69 | 55.63 | 53.65
x1 = 0.0854 | 58.94 | 56.56 | 54.18 | 51.8
x1 = 0.0991 | 57.71 | 55.42 | 53.12 | 50.83
x1 = 0.2005 | 51.23 | 49.14 | 47.05 | 44.96
x1 = 0.2973 | 47.24 | 45.52 | 43.8 | 42.09
x1 = 0.3969 | 44.64 | 43.2 | 41.75 | 40.31
x1 = 0.4996 | 43.06 | 41.7 | 40.33 | 38.97
x1 = 0.5977 | 41.55 | 40.25 | 38.96 | 37.66
x1 = 0.7005 | 40.33 | 39.12 | 37.91 | 36.7
x1 = 0.8034 | 39.3 | 38.1 | 36.9 | 35.69
x1 = 0.9096 | 38.38 | 37.16 | 35.95 | 34.73
x1 = 1 | 37.68 | 36.46 | 35.24 | 34.02

O [water] + C1COCCN1
[1], x2 = 0
Conditions | surface tension liquid-gas [mN/m]
298.15 K | 72.01
308.15 K | 70.41
318.15 K | 68.79
328.15 K | 67.17

O [water] + CN1CCOCC1
[1], x2 = 0
Conditions | surface tension liquid-gas [mN/m]
298.15 K | 72.01
308.15 K | 70.41
318.15 K | 68.79
328.15 K | 67.17
